Results: patent US20070105875A1, “Fungicidal mixtures” (priority 2004, published 2007)

Test system: Corticium sasakii (syn. Rhizoctonia solani)
Test: Activity against sheath blight on rice caused by Corticium sasakii (protective spray test on potted rice plants)
Type: in vivo
Conditions: individual active compound, rice cultivar Tai-Nong 67, evaluation after 11 days, untreated control 90% infection
Experimental: The active compounds, separately or jointly, were prepared as a stock solution with 0.25% by weight of active compound in acetone or DMSO. 1% by weight of the emulsifier Uniperol® EL (wetting agent having emulsifying and dispersing action based on ethoxylated alkylphenols) was added to this solution, and the solution was diluted with water to the desired concentration.
Activity Against Sheath Blight on Rice Caused by Corticium sasakii (syn. Rhizoctonia solani)
Pots of rice plants of the cultivar “Tai-Nong 67” were sprayed to runoff point with an aqeuous suspension having the concentration of active compound stated below. The next day, oat grains infected with Corticium sasakii were placed into the pots (in each case 5 grains per pot). The plants were then placed in a chamber at 26° C. and maximum atmospheric humidity. After 11 days, the sheath blight on the untreated but infected control plants had developed to such an extent that the infection could be determined visually in %.
Evaluation is carried out by determining the infected leaf areas in percent. These percentages were converted into efficacies.
The efficacy (E) is calculated as follows using Abbot's formula: E=(1−α/β)·100 α corresponds to the fungicidal infection of the treated plants in % and β corresponds to the fungicidal infection of the untreated (control) plants in %
An efficacy of 0 means that the infection level of the treated plants corresponds to that of the untreated control plants; an efficacy of 100 means that the treated plants are not infected.
The expected efficacies of the mixtures of active compounds are determined using Colby's formula [R. S. Colby, Weeds 15, 20-22 (1967)] and compared with the observed efficacies.
Colby's Formula: E=x+y−x·y/100 • E expected efficacy, expressed in % of the untreated control, when using the mixture of the active compounds A and B at the concentrations a and b • x efficacy, expressed in % of the untreated control, when using active compound A at the concentration a • y efficacy, expressed in % of the untreated control, when using active compound B at the concentration b

CO/N=C(/C(=O)OC)c1ccccc1COc1ccccc1C [II (kresoxim-methyl), methyl methoxyimino-(2-o-tolyloxymethylphenyl)acetate]
Efficacy in % of the untreated control (1 ppm in the spray liquor): 0%
Efficacy in % of the untreated control (4 ppm in the spray liquor): 0%

CC1CCN(c2c(-c3c(F)cc(F)cc3F)c(Cl)nc3ncnn23)CC1 [I, 5-chloro-7-(4-methylpiperidin-1-yl)-6-(2,4,6-trifluorophenyl)-[1,2,4]triazolo[1,5-a]pyrimidine]
Efficacy in % of the untreated control (1 ppm in the spray liquor): 33%

C[C@H](Nc1c(-c2c(F)cc(F)cc2F)c(Cl)nc2ncnn12)C(F)(F)F [B]
Efficacy in % of the untreated control (1 ppm in the spray liquor): 0%

CC1CCN(c2c(-c3c(F)cccc3Cl)c(Cl)nc3ncnn23)CC1 [A]
Efficacy in % of the untreated control (1 ppm in the spray liquor): 0%
